The results in this text go back to US20200164005A1, “PHARMACEUTICAL COMPOSITIONS OF A BILE ACID DERIVATIVE AND MICROBIOME AND USES THEREOF” (Intercept Pharmaceuticals, Inc., priority 2017, published 2020).

Assay [1] relates to MetaCyc pathways of the gut microbiome. The experiment in a line: MetaCyc pathway differential abundance analysis of stool metagenome. Format: in vivo, human. From the text: HUMAnN2 (Abubucker et al., PLoS Comput. Biol. 8, e1002358 (2012)) was used to calculate gene and pathway abundance from metagenomic sequencing data. Uniref50 (UniProt® Consortium, Nucleic Acids Res. 43, D204 (2015)) was used for gene family definition. MetaCyc (Caspi et al., Nucleic Acids Res. 42, D459 (2014)) and KEGG (Kanehisa and Goto, Nucleic Acids Res. 28, 27 (2000); Kanehisa et al., Nucleic Acids Res. 44, D457 (2016)) were used for pathway analysis. • Gene family identification: Initially, 989251 gene families were identified from the dataset by HUMAnN2. Quantile normalization was implemented. For each sample, the RPK values were added up till 90% percentile of all genes (normalization factor, nf). RPK value of each gene in each sample was then divided by the nf of the sample, and multiplied with the mean of nf of all samples. 683270 uncharacterized genes were removed. Genes undetected in over 90% of samples (101994) were removed. 203987 genes were kept. Due to the large number of genes identified, 25% of the most varying genes were selected for further analysis. The most varying genes were defined by the coefficient variation (cv=sd/mean) of log 2 transformed value. • MetaCyc pathway identification: HUMAnN2 identified 567 MetaCyc pathways from the dataset. Quantile normalization was then performed. For each sample, the abundance values were added up till 90% percentile of all pathways (normalization factor, nf). Each pathway abundance in each sample was divided by the nf of the sample, and then multiplied with the mean of nf for all samples. The low abundance pathways (52), which were not detected on over 90% of all samples, were removed. 515 high quality MetaCyc pathways were kept for further analysis. • KEGG pathway identification: HUMAnN2 identified 160 KEGG pathways from the dataset. Quantile normalization was applied, and low abundance pathways were removed. 66 high quality KEGG pathways were kept for further analysis.
gene abundance˜aov(day*OCAdose+error(subject ID)) • Pathway differential abundance analysis: For each of the identified pathways, repeated measure ANOVA was also performed to study the time effect and OCA dose effect on pathway abundance change.
pathway abundance˜aov(day*OCAdose+error(subject ID)) • FGF19 analysis: The GEE model was applied in order to study the relationship of FGF19 change with the microbiome, gene family, and the pathway abundance change over time. The R function geeglm from R package geepack was used for gee modeling. Both FGF19 level and species/gene/pathway relative abundance were log 2 transformed before applying GEE model. […]

In assay [2] the test system is small intestinal microbiota. Kind of assay: 16S tagged sequencing of small intestinal and fecal microbiota of OCA-treated mice. Format: in vivo. The note with it: 10 mg/kg OCA, 14 days. An excerpt:
FIG. 60: The effect of OCA on the composition of the proximal and distal small intestinal, as well as the feces, microbiota of mice based on 16S tagged sequencing.
FIG. 63: Box and whisker plots of differentially abundant taxa in the distal small intestine of mice in response to treatment with OCA relative to two controls. S24-7, Clostridiaceae, and Turibacter are differentially abundant between the MC and OCA groups (fdr=0.1759, 0.04503, and 0.2332, respectively); Sutterella and Akkermansia are differentially abundant between the control and OCA groups (fdr=0.3199 for both).
The bacterial species that increase most prominently upon OCA treatment have been reported to represent a significant proportion of the small intestinal microbiota, but are very minor constituents in stool. For example, Streptococci represent as much as 20% of the human small intestinal microbiota by 16S tagged sequencing (Dlugosz et al., Sci Rep-Uk, 5 (2015)); El Aidy et al., Curr Opin Biotechnol., 32, 14-20 (2015)). […] To determine whether OCA treatment can alter the gut microbiota composition specifically in the small intestine, mice were treated with OCA for 14 days, the microbiota composition in the proximal and distal small intestine, as well as the stool, and quantified bile acids were characterized. […] Also notable was the quantitative difference in the absolute levels of luminal bile acids in the small intestine (approximately 100-fold greater than in the feces, FIGS. 59A-59C); this is consistent with enterohepatic reabsorption of over 95% of bile acids in the terminal ileum of the small intestine (de Aguiar Vallim et al., Cell Metabolism, 17, 657-669 (2013)).

As to `CC[C@H]1[C@@H](O)[C@@H]2[C@H](CC[C@]3(C)[C@@H]([C@H](C)CCC(=O)O)CC[C@@H]23)[C@@]2(C)CC[C@@H](O)C[C@@H]12` [OCA, 3α,7α-dihydroxy-6α-ethyl-5β-cholan-24-oic acid], the “pathways associated with nucleotide and amino acid biosynthesis” value in assay [1] (OCA treatment) is recorded as “enriched”. Besides, in assay [1] (out of 515, FDR<0.05 for time effect), the “number of MetaCyc pathways differentially abundant over time” value came out at 41. For the same compound, the “number of MetaCyc pathways with significant time effects” value in assay [1] (repeated measure ANOVA, FDR<0.01, Example 7) was 135. The “OCA dose effect on MetaCyc pathway abundance” value in assay [1] (repeated measure ANOVA, FDR<0.05) is “No OCA dose effect or OCA dose×day interaction was observed”. Moreover, in assay [2], the “Clostriciaceae family of Firmicutes in proximal and distal small intestine” value is recorded as “increased abundance”; the “Clostriciaceae family of Firmicutes in the feces” value is “not in the feces”. In addition, the “overall composition of the small intestinal microbiota” value in assay [2] (versus water and methylcellulose) is given as “different from both control groups”.
